Experimental findings from US20250099596A1, “TETRAHYDRONAPHTHALENE COMPOUND, AND PREPARATION METHOD THEREFOR AND USE THEREOF IN MEDICINE” (Jiangsu Hengrui Pharmaceuticals Co., Ltd., priority 2021, published 2025) are described below.

SMILES strings stand for the structures. Converted amounts (≈) assume the structure as drawn. Where two headings read alike, the source gives them in different places.

The subject of one data set is MCF7 cells. In words: Inhibitory effects on MCF7 cell proliferation (CellTiter-Glo). The class given is cell-based. To be noted: Homo sapiens, 144 h, 6 days incubation, read-out: IC50 (nM), inhibition of MCF7 cell proliferation. In outline:
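MCF7 cells seeded at 3,000 cells/well in MEM with 2% FBS, then treated next day with 9 final concentrations (4-fold dilutions from 1000 nM) for 6 days at 37° C; blank control 0.5% DMSO. Viability read by CellTiter-Glo luminescence; IC50 fitted from concentration–signal data.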
(Cellular ATP, detected with luciferase, serves as a proxy for viable cell number.)

A short description of data set [1]: Pharmacokinetic evaluation, SD rat test. It is filed as in vivo. To be noted: SD rats; for AUC(0-t): read-out: Area under curve AUC0-t; for half-life: read-out: Half-life T1/2 (converted); for Cmax: read-out: Plasma concentration Cmax. How it is done:
With SD rats as test animals, the plasma concentration of the compound of Example 26-1 was determined by LC/MS/MS at different time points after intragastric (i.g.)/intravenous (i.v.) administration to SD rats. The pharmacokinetic behavior of the compound of the present disclosure in SD rats was studied and its pharmacokinetic profile was evaluated.
Eight SD rats, of which half were male and half female, were evenly divided into 2 groups. The rats were provided by Zhejiang Vital River Laboratory Animal Technology Co., Ltd. The 2 groups were fasted overnight and then dosed intragastrically and intravenously, respectively.
An appropriate amount of the compound of Example 26-1 was weighed out and mixed with 5% EtOH+95% (a 15% solution of polyethylene glycol 15-hydroxystearate prepared in a 5% aqueous solution of glucose) to make a 0.2 mg/mL colorless clear solution (for the intragastric administration group) and a 0.2 mg/mL colorless clear solution (for the intravenous administration group).
The intragastric administration group: the dose was 2.0 mg/kg, and the volume was 10.0 mL/kg.
The intravenous administration group: the dose was 1.0 mg/kg, and the volume was 5.0 mL/kg.
The intragastric administration group: Blood (0.2 mL) was collected from the orbit into EDTA-K2 anticoagulation tubes before administration and 0.25 h, 0.5 h, 1.0 h, 2.0 h, 4.0 h, 6.0 h, 8.0 h, 11.0 h and 24.0 h after administration and centrifuged at 10,000 rpm for 1 min (4° C.). The plasma was separated within 1 h and stored at −20° C. before analysis. The process from blood collection to centrifugation was performed in an ice bath. Two hours after administration, feeding was resumed.
The intravenous administration group: Blood was collected before administration and 5 min, 15 min, 0.5 h, 1.0 h, 2.0 h, 4.0 h, 8.0 h, 11.0 h and 24 h after administration and processed as in the intragastric administration group.
The plasma concentration of the test compound was determined after administration of different concentrations of the test compound to SD rats: plasma samples (25 μL) were collected from SD rats at various time points after administration, and 50 μL of camptothecin (100 ng/mL) was added to each of the samples; proteins were precipitated with 200 μL of acetonitrile; the mixtures were vortexed for 5 min and centrifuged at 4000 rpm for 10 min. 1 μL of supernatant was collected for LC/MS/MS analysis.

Data set [2] in a line: Solubility in FassIF and FessIF solution. The class given is physicochemical. To be noted: thermodynamic from solid. How it is done:
Solution (A): 4.441 g of NaH2PO4·2H2O, 0.348 g of NaOH granules and 6.186 g of NaCl were added to 900 mL of ultrapure water and well mixed, and the solution was adjusted to pH 6.5±0.05 with 1 M NaOH, brought to volume (1000 mL) with water, and stored at 4° C. for future use.
FaSSIF solution (B): 0.161 g of sodium taurocholate (NaTC) and 59 mg of lecithin were dissolved in 20 mL of solution (A). The resulting solution was vigorously stirred overnight to form a clear micellar solution, and solution (A) was added to make a volume of 100 mL. The resulting solution was stored at 4° C. for future use (not more than 2 weeks).
Solution (A): 20.2 g of NaOH granules, 43.25 g of acetic acid and 59.37 g of sodium chloride were precisely weighed out and dissolved in a proper amount of ultrapure water. The solution was brought to volume (5 L), adjusted to pH 5.0 with 1 M NaOH or 1 M HCl, and stored at 4° C. for future use.
FeSSIF solution (B): 0.80652 g of sodium taurocholate (NaTC) and 295.5 mg of lecithin were dissolved in 25 mL of solution (A). […]
3.1. […] 10 μL of the stock solution (concentration 10 mM, dissolved in DMSO) was precisely measured out and well mixed with 990 μL of an organic solvent mixture (usually DMSO:acetonitrile:ethanol=1:1:1) in a 2 mL sample flask to obtain a 100 μM clear sample solution as a reference solution. […]

[3] abbreviates: both sexes, rat, plasma, iv, i.v., 1.0 mg/kg.
The mark [4] stands for this setting: both sexes, rat, plasma, po, i.g., 2.0 mg/kg.

By solubility is commonly meant how much of the substance goes into solution per volume. For `CC(C)C[C@H]1CCc2cc(O)ccc2[C@H]1c1ccc(N2CCC(CN3CCN(c4ccc5c(c4)CN([C@H]4CCC(=O)NC4=O)C5=O)CC3)CC2)cc1` [Example 26-1, (S)-3-(5-(4-((1-(4-((1R,2R)-6-Hydroxy-2-isobutyl-1,2,3,4-tetrahydronaphthalen-1-yl)phenyl)piperidin-4-yl)methyl)piperazin-1-yl)-1-oxoisoindolin-2-yl)piperidine-2,6-dione], the IC50 in the data set on MCF7 cells came to 0.59 nM. In data set [1] (i.v., 1.0 mg/kg), the “Clearance CL/F” value was found to be 6.4 mL/min/kg. Moreover, in data set [1] (setting [3]), the AUC(0-t) was 2640 ng·h/mL, the half-life was 4.8 h and the Cmax was 4040 ng/mL. Further, in data set [1] (both sexes, rat, plasma, po, i.g., 2.0 mg/kg, read-out: Apparent distribution volume Vz/F), the Vd/F is 38.5 L/kg. In addition, in data set [1] (setting [4]), the AUC(0-t) came to 302 ng·h/mL, the half-life was 4.4 h and the Cmax came to 32.9 ng/mL. Also, in data set [1] (both sexes, rat, plasma, po, i.g., 2.0 mg/kg, read-out: Clearance CL/F), the CL/F came to 102 mL/min/kg. Moreover, the solubility at 24 h in data set [2] (FassIF solution pH 6.5, 37° C., read-out: Solubility in FassIF solution) came to 97 µM (≈ 68.3 µg/mL). In addition, the solubility at 24 h in data set [2] (FessIF solution pH 5.0, 37° C., read-out: Solubility in FessIF solution) worked out at 553 µM (≈ 389 µg/mL).
